The values that follow come from patent US8450352B2, “Thiazole compounds and their use for inhibiting phosphodiesterase 4, TNF-α, and IL-4” (Otsuka Pharmaceutical Co., Ltd., priority 2004, dated 2013).

One data set deals with TNF-α production. Briefly: Measurement of TNF-α production inhibitory activity. It counts as cell-based. Conditions: PBMC; concentration that inhibits TNF-α production by 50%; LPS (1 μg/ml)-stimulated human peripheral blood mononuclear cells, 24 hours, ELISA. As for the experimental part: Measurement of TNF-α Production Inhibitory Activity
The following tests were performed to evaluate TNF-α production inhibitory activity.
(1) Separation of Human Peripheral Blood Mononuclear Cells
A peripheral blood sample was obtained from a healthy adult donor who had signed a written informed consent. Thirty milliliters of the blood sample, which had been heparinized, was dispensed into a Leucosep tube (Greiner) containing 16 ml of a lymphocyte separation solution (Nakarai Chemical, Ltd.) under the filter barrier, and centrifuged at 1000×g for 15 minutes.
The intermediate layer corresponding to a mononuclear cell fraction was collected in a 50 ml centrifuge tube, and washed twice with a RPMI 1640 medium. After trypan blue staining, the viable count was determined and adjusted to 2×10^6 cells/ml with RPMI 1640 medium.
(2) Induction of TNF-α Production
E. coli (Serotype 055:B5)-derived LPS, which had been dissolved in a RPMI 1640 medium to a concentration of 5 mg/ml, sterilized by filtration and stored in a freezer, was melted and diluted with a RPMI 1640 medium to 10 μg/ml. The test substances were dissolved in DMSO to obtain solutions with a concentration of […] the final use concentration. One microliter of each of the graded concentration test substance solutions, 149 μl of RPMI 1640 medium, 50 μl of LPS solution (final concentration: 1 μg/ml), 50 μl of fetal bovine serum, and […] of the peripheral blood mononuclear cell suspension were dispensed to each well of a 48-well plate and incubated at 37° C. for 24 hours.
(3) Measurement of TNF-α Concentration
After completion of the incubation, the culture supernatant was collected from each well, and the TNF-α concentration in the supernatant was measured by ELISA method (Human TNF-α Eli-pair, Diaclone).
A general note: In an ELISA, binding on a coated surface is turned into a signal by an enzyme label.

A further data set has as its target T1, human PDE4D (HPDE4D) (Homo sapiens, UniProt Q08499).
T1 construct: made in house; host or cells: COS-7 cells (African green monkey kidney), transient transfection; soluble supernatant of the homogenate
The data set is described as follows: Confirmatory test for phosphodiesterase (PDE) 4 inhibitory activity. To be noted: concentration that inhibits the PDE4 activity by 50%; PDE4D enzyme solution from transfected COS-7 cells, [3H]cAMP substrate. It counts as biochemical. An excerpt:
Confirmatory Test for Phosphodiesterase (PDE) 4 Inhibitory Activity
(1) Mass Preparation of Plasmids
Plasmids containing genes coding for human PDE4D (HPDE4D) (stored in Otsuka America Pharmaceutical, Inc., Maryland Research Laboratories) were transformed into Escherichia coli, and mass cultured. The plasmids were then purified using EndoFree™ Plasmid Mix Kit (Qiagen).
(2) Mass expression and purification of PDE4D
African green monkey kidney-derived COS-7 cells (RCB 0539) were subcultured in a DMEM medium containing 100 units/ml penicillin, […] streptomycin and 10% FBS. The plasmids prepared in (1) were transfected into the cells, using LipofectAMINE™ 2000 Reagent (hereinafter referred to as “LF2000”, a product of Invitroge), according to the attached protocol. For comparison, pcDNA3.1 was transfected as a control vector. The COS-7 cells were inoculated into 10 cm diameter petri dishes on the day before transfection, so that the cells reached 90% confluence on the day of transfection. Twelve micrograms of the plasmids diluted with 0.9 ml of OPTI-MEM I (Invitrogen) (a plasmid solution; Solution A) and 30 μl of LF2000 diluted with 0.9 ml of OPTI-MEM I (a LF2000 solution; Solution B) were prepared per petri dish, and allowed to stand at room temperature for 5 minutes. Solutions A and B were then mixed together and allowed to stand at room temperature for 20 minutes. The mixture was added to the cultured cells, and incubation was performed overnight at 37° C. in an atmosphere of 5% CO2. The culture medium was changed on the following day, incubation was continued overnight, and the cells were collected by the following procedure. First, the cells were washed once with PBS (Sigma), and 2 ml of Trypsin-EDTA solution (Sigma) was added per petri dish, spread over the dish and removed. The cells were then allowed to stand at 37° C. for 2 to 3 minutes, separated from the petri dish and suspended in a medium. The suspension was placed in a centrifuge tube, and centrifuged at 200×g and 4° C. for 5 minutes. The supernatant was then removed. The cells were further washed with PBS and stored at −80° C. A KHEM buffer (50 mM Hepes, 50 mM KCl, 10 mM EGTA, 1.92 mM MgCl2, pH 7.2) containing 1 mM DTT, 40 μg/ml PMST, 156 μg/ml benzamidine, 1 μg/ml apotinin, 1 μg/ml leupeptin, 1 μg/ml pepstatin A, and 1 μg/ml antipain was added to the cells that had been stored, and the resulting mixture was placed in a glass homogenizer and homogenized on ice. The cell suspension was centrifuged at 100×g and 4° C. for 5 minutes, and the supernatant was further centrifuged at 100,000×g for 1 hour. Thereafter, the supernatant was dispensed into new tubes as a PDE4D enzyme solution, and stored in an ultra-low-temperature freezer. The protein concentration of the PDE4D enzyme solution was then measured.
(3) Determination of Dilution Factor of PDE4D Enzyme Solution
The PDE4D enzyme solution prepared in (2) was diluted 10-, 25-, 50-, 100-, 200-, 400- and 800-fold with 20 mM Tris-HCl (pH 7.4), and the PDE4D activities of the diluted enzyme solutions were measured by the method described in (4) to determine the optimum dilution factor to obtain a PDE4D enzyme solution in which degraded cAMP constituted 10 to 30% of the total cAMP.
(4) Measurement of PDE4D Inhibitory Activity
The necessary amount of each test substance was weighed out and dissolved in 100% DMSO to a concentration of 10 mM. The resulting solutions were stored in a freezer as test substance stock solutions. Before the inhibitory activity measurement, the stock solutions were melted, diluted 2-fold with 100% DMSO to a concentration of 5 mM, and further diluted with 100% DMSO to obtain test substance solutions with 10 graded concentrations. Each test substance solution was added to a 1.2 ml tube containing 23 μl of 20 mM Tris-HCl (pH 7.4). […]

The structures appear in SMILES notation. pIC50: −log10 of the molar value.

T1 sequence (Q08499 whole entry): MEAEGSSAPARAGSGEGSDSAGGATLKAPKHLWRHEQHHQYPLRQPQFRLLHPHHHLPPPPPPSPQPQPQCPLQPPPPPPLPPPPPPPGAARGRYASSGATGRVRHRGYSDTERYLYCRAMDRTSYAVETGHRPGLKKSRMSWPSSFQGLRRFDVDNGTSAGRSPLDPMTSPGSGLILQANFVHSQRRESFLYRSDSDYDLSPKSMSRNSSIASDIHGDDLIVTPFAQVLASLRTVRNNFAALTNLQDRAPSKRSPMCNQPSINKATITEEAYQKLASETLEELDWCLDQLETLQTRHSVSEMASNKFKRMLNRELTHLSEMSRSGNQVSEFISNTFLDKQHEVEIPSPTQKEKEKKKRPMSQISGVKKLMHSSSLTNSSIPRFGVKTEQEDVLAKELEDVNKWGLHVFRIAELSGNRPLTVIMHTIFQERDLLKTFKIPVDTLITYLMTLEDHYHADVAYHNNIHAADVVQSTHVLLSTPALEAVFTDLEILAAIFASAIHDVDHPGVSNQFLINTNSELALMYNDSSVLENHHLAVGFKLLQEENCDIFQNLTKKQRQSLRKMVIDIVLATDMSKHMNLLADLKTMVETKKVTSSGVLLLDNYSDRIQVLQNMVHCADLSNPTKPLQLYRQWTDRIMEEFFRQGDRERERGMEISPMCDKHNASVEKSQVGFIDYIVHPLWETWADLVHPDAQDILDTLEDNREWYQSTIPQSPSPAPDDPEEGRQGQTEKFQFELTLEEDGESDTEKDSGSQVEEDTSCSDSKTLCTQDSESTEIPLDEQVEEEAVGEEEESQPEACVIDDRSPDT

As a reminder, the pIC50 is the IC50 on a negative log10 scale, so that one unit is a factor of ten. The low end stands for a high IC50, the high end for a low IC50. Broadly, the melting point is the temperature of the solid-liquid transition. In turn, `CCOc1ccc(-c2nc(/C=C/C(=O)c3ccccc3OC)cs2)cc1OCC` [Example 1, (E)-3-[2-(3,4-diethoxyphenyl)thiazole-4-yl]-1-(2-methoxyphenyl)propenone] returned a melting point of 130 to 131 °C. This compound gave a pIC50 with TNF-α production of 8.10. At human PDE4D (HPDE4D), this compound gave a pIC50 of 7.63.
